Laboratory results published in patent publication US4355024A, “Method and feed for stimulating the growth of animals” (priority 1979, dated 1982).
Where “and” joins values, the source holds several entries; their conditions need not be identical. Equal entries are not always repeated. Peptide text beside a SMILES is read from it.

Assay: Growth stimulation in rats fed chow containing the additive (body weight over 15 days)
Format: in vivo, Wistar strain rats
Details: 0.25% wt/wt in feed; for Mean Body Weight, experimental animals: 10 male Wistar rats; for Body Weight of Animals (individual experimental animals): male Wistar rats
Experimental: Two groups of 10 Wistar strain rats each, all males to avoid estrus cyclical changes in the 15-day experimental period, were kept in two separate stock cages in an animal room maintained at 25° C. with an automatic 12-hour light-12-hour-dark cycle. Dry standard laboratory chow pellets were made up into a wet mash by adding a 1:1 mixture of water (wt/wt), which then was compressed by hand into balls weighing approximately 20 grams each. To each 20 g ball made for the experimental group, 50 mg of the methyl ester of L-aspartyl-L-phenylalanine was added, which represents a 0.25% wt/wt admixture. More than adequate food was made freely available to the animals at all times and drinking water was made available ad libitum. All individual rats were numbered by a colored stripe system marked on the tail. The animals were weighed on a balance to an accuracy of 1 gram at the start of the experiment (3 days after arrival in the cages to allow them to adjust to their new environment). They were then weighed again after 2, 4, 6, 8, 10, 12 and 14 days from the start of the new diet (i.e., days 3, 5, 7, 9, 11, 13 and 15 of the experiment). The rates of growth of the control and experimental animals is summarized in tabular form below: […]

[1] = Day 1 (start of diet, baseline)

Compound: COC(=O)[C@H](Cc1ccccc1)NC(=O)[C@@H](N)CC(=O)O [methyl ester of L-aspartyl-L-phenylalanine] (H-Asp-Phe-OMe)
- Mean Body Weight, experimental animals [1]: 102.6 grams
- Mean Body Weight, experimental animals (Day 3): 117.8 grams
- Mean Body Weight, experimental animals (Day 5): 133.4 grams
- Mean Body Weight, experimental animals (Day 7): 149.8 grams
- Mean Body Weight, experimental animals (Day 9): 166.8 grams
- Mean Body Weight, experimental animals (Day 11): 183.1 grams
- Mean Body Weight, experimental animals (Day 13): 199.9 grams
- Mean Body Weight, experimental animals (Day 15): 215.9 grams
- Body Weight of Animals (individual experimental animals) [1]: 94 grams and 105 grams and 96 grams and 110 grams and 102 grams and 98 grams and 104 grams and 95 grams and 114 grams and 108 grams
- Body Weight of Animals (individual experimental animals) (Day 3): 112 grams and 119 grams and 110 grams and 128 grams and 120 grams and 109 grams and 129 grams
- Body Weight of Animals (individual experimental animals) (Day 5): 130 grams and 135 grams and 126 grams and 145 grams and 134 grams and 127 grams and 124 grams
- Body Weight of Animals (individual experimental animals) (Day 7): 148 grams and 153 grams and 143 grams and 161 grams and 150 grams and 149 grams and 140 grams and 162 grams
- Body Weight of Animals (individual experimental animals) (Day 9): 169 grams and 160 grams and 161 grams and 178 grams and 166 grams and 158 grams and 165 grams and 155 grams and 180 grams
- Body Weight of Animals (individual experimental animals) (Day 11): 184 grams and 188 grams and 180 grams and 193 grams and 183 grams and 172 grams and 181 grams and 169 grams and 197 grams
- Body Weight of Animals (individual experimental animals) (Day 13): 203 grams and 204 grams and 195 grams and 209 grams and 202 grams and 186 grams and 200 grams and 184 grams and 213 grams
- Body Weight of Animals (individual experimental animals) (Day 15): 220 grams and 223 grams and 211 grams and 226 grams and 217 grams and 201 grams and 215 grams and 198 grams and 227 grams and 221 grams
- mean body weight of the experimental group higher than the mean body weight of the control group (rats, after 2 weeks): about 34%
- increase in body weight versus control (in words) (rats, beginning with the seventh day of the experiment): significant increases in body weight
